The values below come from a melting point compilation (Tetko et al.; mined from patent text by program, amines drawn as free bases though some values may be those of a salt).

Where only a bound is given, the exact number is not on record here.

The compound `COc1cccc(N2CCN(CCC(O)COc3ccccc3)CC2)c1` (stereo not given) yielded a melting point of 58 to 60 °C.
To `CN(CC(=O)OC(C)(C)C)c1cncc(-c2nc(=O)c3ccccc3s2)n1` belongs 189 to 190 °C.
For `COc1ccc(OC)c(S(=O)(=O)n2c(CCCC(=O)O)cc3cc(Cl)ccc32)c1` the value was 201 to 209 °C; for `CC(C)(C)OC(=O)N1CCN(C(=O)CI)CC1`, 69 to 71 °C; for `Cc1c(C(C)CC(=O)O)n(Cc2ccc(Cl)cc2)c2ccc(O)cc12` (stereo not given), 162 °C.
As to `C=CCC(C(O)=Nc1cc(Cl)cc(Cl)c1)C(C)C(=O)O` (stereo not given), the melting point stood at 131 °C.
Take `CCOC(=O)c1cnc(N2CCC[C@H]2CO)nc1NCc1ccc(OC)c(Cl)c1`: the melting point lay within 88 to 90 °C.
In turn, `O=C1CN(CCCOc2ccc(NC(=O)c3cc(F)cc(N4CCCCC4)c3)c3ccccc23)CCN1` registered a melting point of 90 to 92 °C.
Compound `CCOC(=O)C1=C(CC)NCN(c2ccc(Cl)cc2)C1=O` registered a melting point of 118 to 120 °C.
For `COc1ccc(Br)c2nc(SCc3ccccc3)nn12` the value was 78 to 79 °C; for `CCc1ccccc1NS(=O)(=O)c1ccc(N2CCNC2=O)cc1`, 171 to 172 °C; for `Cc1ccc2[nH]c(=O)cc(CCO)c2c1`, 252 to 255 °C.
In turn, `O=C(O)c1ccc(S(=O)(=O)CCO)c([N+](=O)[O-])c1` gave a melting point of 190 to 192 °C.
To `CC1(C)CC(NC(=O)c2ccc(-c3cc4cc(Cl)c(Cl)cc4[nH]3)c(O)c2)CC(C)(C)N1` belongs above 270 °C; to `CCc1noc(-c2cn(-c3cnccn3)cn2)n1`, 166 to 167 °C.
To `Nc1ccccc1CNC1CCC(=O)NC1=O` (stereo not given) belongs 48 to 54 °C; to `CC(C)(C)OC(=O)Nc1ccc(CC(=O)N2CCC(c3[nH]nc4c3C(=O)c3c(NC(=O)NN5CCOCC5)cccc3-4)CC2)cc1`, 177 to 178 °C.
Regarding `Clc1ccc2c(c1)CSCCCN2`, the melting point was 54 to 55 °C.
In the case of `COC(=O)c1ccccc1S(=O)(=O)NC(=O)c1nc(OC)cc(OC)n1`, the melting point fell in the range of 163 to 165 °C.
To `C=CCOC1C(NC(C)=O)C(OCc2ccccc2)OC(COCc2ccccc2)C1OCc1ccccc1` (stereo not given) belongs 138 °C; to `O=C(O)c1cccc(-c2cc(-c3ccc(C(F)(F)F)cc3)on2)c1`, 276 to 277 °C; to `COC(=O)C1=C(C)NC(C)=C(C(=O)OC)C1c1cccc(Nc2c(NCCCN3CCN(C4CCCCC4)CC3)c(=O)c2=O)c1`, 210 to 212 °C.
For the compound `O=C(c1ccccc1)c1cc2ccnc(Cl)c2[nH]1`, the melting point was 152 to 153 °C.
`COc1ccc(C#Cc2cc(Cl)cc3c2OC(CC(F)(F)F)C(C(=O)O)=C3)cc1` (stereo not given) returned a melting point of 218 to 219 °C.
The compound `O=C1c2ccccc2CCc2cc(Br)ccc21` showed a melting point of 94 to 96 °C.
To `Clc1ccc(-c2nnnn2Cc2cccnc2)cc1Cl` belongs 166 to 168 °C; to `CN1CCC(CCCOc2cc3ncnc(Nc4cccc(Br)c4)c3cc2N)CC1`, 191 to 198 °C.
`Oc1c(CN2CCCC2)cc(Nc2ccccn2)cc1CN1CCCC1` came in with a melting point of 158 to 159 °C.
To `COc1ccc(C(=O)CC(O)C(=O)O)cc1OC` (stereo not given) belongs 106 to 108 °C; to `CCc1nc2c(C)cc(C)nc2n1Cc1ccc2c(c1)CCc1ccccc1N2Cc1ccccc1C#N`, 133 to 135 °C; to `Cc1nc(CC2OC(COC(=O)c3ccccc3)C(O)C2O)n2nc(Cl)ccc12` (stereo not given), 155 to 157 °C.
The compound `Cn1cncc1C(N)(c1ccoc1)c1ccc2c(c1)c(-c1cccc(Cl)c1)cc(=O)n2C` (stereo not given) displayed a melting point of 197 °C.
Compound `COc1cc(Cc2cnc(N)nc2N)cc2c(C)ccnc12` registered a melting point of 287 to 290 °C.
In turn, `OCCN1CCN(c2cc(Cl)nnc2Cl)CC1` registered a melting point of 139 to 141 °C.
As to `CCCCC[C@H](O)c1ccc(Br)cc1`, the melting point lay within 70 to 71 °C.
On to `C[C@@H]1O[C@@]1(Cn1cncn1)c1ccc(F)cc1F` (racemic), for which the melting point lay in the range of 66 to 68 °C.
In the case of `COC(=O)Cc1c(C)n(Cc2ccccc2OC)c2ccc(OC)cc12`, the melting point was 98 to 100 °C.
For `COC(=O)N=C(NC(=O)OC)SC` the value was 99 to 101 °C; for `CCc1cccc(C)c1NC(=S)NC(C)(C)C`, 94 to 96 °C; for `CC1(C)CC(=O)Nc2cc(-c3nc4ccccc4[nH]3)ccc21`, 314 to 316 °C.
To `Cn1nnnc1-c1cn(C)c2cc(Cl)ccc2c1=O` belongs 270 to 273 °C; to `CS(=O)(=O)Nc1cc2oc(N)cc(=O)c2cc1Oc1ccccc1`, 223 to 225 °C; to `CN1C(=O)CN(c2cccc(O)c2)NC1=O`, 95 to 96 °C.
The compound `Nc1ccc(-c2ccc(-c3ccc(N)cc3Cl)o2)c(Cl)c1` showed a melting point of 192 to 193 °C.
For `FC(F)(F)c1cccc(OC(c2ccc(Cl)cc2)c2nnn[nH]2)c1` (stereo not given) the value was 124 to 126 °C.
Consider `O=C(O)c1ccc(NC(=O)C(CC2CCCC2)c2ccc(-c3cccc4ccccc34)cc2)nc1` (stereo not given), for which the melting point lay within 155 to 158 °C.
For `COc1ccc(C2(c3ccc(OC)cc3)CCN(CC[C@@H]3C=C4c5cccc6[nH]cc(c56)C[C@H]4N(C)C3)CC2)cc1` the value was 184 to 187 °C.
For `Cc1ccccc1N=C(C#N)c1c(Cl)cccc1Cl` the value was 55 °C.
With `CC(=O)NC(C)Cc1ccc(C=CC(=O)O)cc1` (stereo not given), the melting point is 207 to 208 °C.
To `CC(C)C(=O)Nc1ccc(S(=O)(=O)c2ccc(F)cc2)cc1` belongs 112 to 115 °C.
To `CCOC(=O)c1cccc2nc(CNC)n(Cc3ccc(-c4ccccc4-c4nnn[nH]4)cc3)c12` belongs 248 to 250 °C; to `CCCCOCCOc1ccc(-c2ccc3c(c2)C=C(C(=O)O)CCN3C(=O)CNC(C)=O)cc1`, 196 to 201 °C.
In turn, `CC1=CC(O)C(OC(=O)c2nc[nH]c2C)C(C)(C)CC1=O` (stereo not given) displayed a melting point of 201 to 202 °C.
For `CC(=O)Oc1cc2nc(-c3ccccc3)nn2c2ccccc12` the value was 200 to 202 °C; for `COc1ccc(C2(O)CCCCC2)cn1`, 74 to 75 °C.
Compound `CN1CCN(c2ccc(-c3[nH]nc4c3C(=O)c3c(NC(=O)NN5CCOCC5)cccc3-4)cc2)CC1` yielded a melting point of 245 °C.
For `Cc1nc(C)c(N2CCCn3c2nc2c(Cl)ccc(C(OC(F)F)C(F)(F)F)c23)c(C)n1` (stereo not given) the value was 168 to 170 °C; for `CCOC(=O)Nc1nc(C)c(-c2nc3ccccc3c(=O)n2-c2cccc(Cl)c2)s1`, 262 to 263 °C.
`Cc1csc(CNC(=O)c2sc(N3CCN(CC4CC4(F)F)C3=O)nc2C)n1` (stereo not given) yielded a melting point of 157 to 159 °C.
To `Cc1nn(C)c2ncc3c(c12)CCC(C)C3` (stereo not given) belongs 92 to 101 °C; to `CC(=O)Nc1cc(C2=NNC(=O)NC2C)ccc1Cl` (stereo not given), 251 to 253 °C; to `COC(=O)c1ncn2c1c(OC)nc1ccccc12`, 189 to 191 °C.
For `COC(=O)c1cc(Oc2ccc(F)cc2F)ncc1[N+](=O)[O-]` the value was 90.2 to 91.4 °C.
Take `OCC1OC(n2cnc3c(NCc4ccccc4)nc(Cl)nc32)CC1O` (stereo not given): the melting point worked out at 147 °C.
The compound `OCc1ccc2oc(-c3cccs3)nc2c1` came in with a melting point of 158 to 159 °C.
To `O=C(O)c1ccc(-c2nn(Cc3cccc(Cl)c3)c(=S)[nH]2)cc1` belongs 302 °C.
To `O=C(NC1(C(=O)O)CC1)OCCOC(=O)C1CCCCC1` belongs 124 to 125 °C; to `S=C(NCCN1CCOCC1)Nc1nccs1`, 150 to 152 °C; to `Cc1cc(N2CCN(C)CC2)n2nc(OCCO)c(S(=O)(=O)c3ccccc3)c2n1`, 178 °C.
To `Cc1c(N2C(=O)C[C@](C)(O)[C@@H]2C)ccc(C#N)c1F` belongs 138 to 141 °C; to `O=C1N(Cc2ccc(C(F)(F)F)nc2)c2ccccc2C12COc1cc3c(cc12)OCCO3` (stereo not given), 204 to 207 °C.
As to `CCC(OC(=O)COC)c1ccc(Cl)c2nc3n(c12)CCCN3c1ccc(Cl)cc1Cl` (stereo not given), the melting point is 156 to 158 °C.
To `CCNc1nc2ccc(CCc3ncc[nH]3)cc2o1` belongs 204 to 206 °C.
To `C=Cc1ccc(C(=O)NC(C#N)n2cccn2)cc1` (stereo not given) belongs 159 to 161 °C; to `Cc1cc(C(=O)c2cccc(Br)c2)c(O)cc1Cl`, 115 to 117 °C.
For `C=CS(=O)CCNC(=O)CCS(=O)(=O)CCCl` (stereo not given) the value was 108 to 109 °C; for `COc1ccc(CNc2nc(-c3ccc(C(=O)O)cc3)nc3scc(C)c23)cc1Cl`, 245 °C; for `CCC(=O)NCc1ccc(NC(=O)/C=C/c2cnn(C)c2-c2ccc(F)cc2)cc1`, 271 to 272 °C.
For the compound `CC(=O)OCC(OC(C)=O)C1OC(OC(C)=O)(C(=O)O)CC(OC(C)=O)C1OC(C)=O` (stereo not given), the melting point lay within 132 to 133 °C.
On to `O=[N+]([O-])c1cccc(S(=O)(=O)NCC2CC2)c1`, for which the melting point was found to be 91 °C.
To `CCn1ncc(C(=O)c2ccc(S(C)(=O)=O)c(OCCOC)c2Cl)c1O` belongs 159 to 160 °C; to `COc1cc2ncc(C#N)c(Nc3ccc4[nH]ncc4c3)c2cc1OC`, 290 to 295 °C.
`Cc1ccc(CSCCCCCOc2ccc(C3=C(c4ccccc4)CCCc4cc(O)ccc43)cc2)cc1`: the melting point was 165 to 169 °C.
`CC(C)(C)OC(=O)N1CCC(c2noc3c(C(F)(F)F)cccc23)CC1` came in with a melting point of 111 to 113 °C.
To `CC(C)(C)[C@H](NC(=O)[C@@H](CC(=O)O)n1ccc(-c2ccc(-c3ccc(C(N)=O)cc3)cc2)c1)C(=O)Nc1ccncc1` belongs 194 to 196 °C; to `CCOC(=O)c1cnn(-c2cccc(Cl)c2)c1N`, 115 to 117 °C.
In turn, `N#Cc1ccc([C@H]2CC[C@H](C=O)CC2)cc1` showed a melting point of 57.1 °C.
To `Cc1cc(C#CC2(O)CN3CCC2CC3)cc(C)c1OCCOc1ccccc1` (stereo not given) belongs 141 to 142 °C; to `O=[N+]([O-])c1ccccc1-c1nc2ccccc2n1CC(O)CO` (stereo not given), 182 to 183 °C; to `Cc1ccc(C2COc3c(ccc(O)c3C)C2)cc1` (stereo not given), 136 to 137 °C.
